Data as given in US10370366B2 (Flatley Discovery Lab, LLC, priority 2013, dated 2019).

Target: T1, human F508del CFTR (Homo sapiens, UniProt P13569, DEL508-508)
T1 construct: expressed in transfected cells; host or cells: Fisher Rat Thyroid (FRT) cells
Test: CFTR-YFP High Throughput Assay
Format: cell-based
Conditions: FRT cells expressing human F508del CFTR and YFP; for Emax: EMax normalized to the positive control, read-out: % Efficacy
How it was run: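 FRT cells stably co-expressing human F508del CFTR and halide-sensitive YFP-H148Q/I152L; for correction, compound (2 nM-40 μM) incubated 24-26 h at 37° C, washed, then stimulated 60-120 min at RT with 20 μM forskolin plus 30 μM potentiator P3. Iodide-induced YFP quench (Ex 500/Em 540 nm) recorded; quench rates least-squares fitted.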

T1 sequence (P13569 with tags, fused parts or gaps DEL508-508): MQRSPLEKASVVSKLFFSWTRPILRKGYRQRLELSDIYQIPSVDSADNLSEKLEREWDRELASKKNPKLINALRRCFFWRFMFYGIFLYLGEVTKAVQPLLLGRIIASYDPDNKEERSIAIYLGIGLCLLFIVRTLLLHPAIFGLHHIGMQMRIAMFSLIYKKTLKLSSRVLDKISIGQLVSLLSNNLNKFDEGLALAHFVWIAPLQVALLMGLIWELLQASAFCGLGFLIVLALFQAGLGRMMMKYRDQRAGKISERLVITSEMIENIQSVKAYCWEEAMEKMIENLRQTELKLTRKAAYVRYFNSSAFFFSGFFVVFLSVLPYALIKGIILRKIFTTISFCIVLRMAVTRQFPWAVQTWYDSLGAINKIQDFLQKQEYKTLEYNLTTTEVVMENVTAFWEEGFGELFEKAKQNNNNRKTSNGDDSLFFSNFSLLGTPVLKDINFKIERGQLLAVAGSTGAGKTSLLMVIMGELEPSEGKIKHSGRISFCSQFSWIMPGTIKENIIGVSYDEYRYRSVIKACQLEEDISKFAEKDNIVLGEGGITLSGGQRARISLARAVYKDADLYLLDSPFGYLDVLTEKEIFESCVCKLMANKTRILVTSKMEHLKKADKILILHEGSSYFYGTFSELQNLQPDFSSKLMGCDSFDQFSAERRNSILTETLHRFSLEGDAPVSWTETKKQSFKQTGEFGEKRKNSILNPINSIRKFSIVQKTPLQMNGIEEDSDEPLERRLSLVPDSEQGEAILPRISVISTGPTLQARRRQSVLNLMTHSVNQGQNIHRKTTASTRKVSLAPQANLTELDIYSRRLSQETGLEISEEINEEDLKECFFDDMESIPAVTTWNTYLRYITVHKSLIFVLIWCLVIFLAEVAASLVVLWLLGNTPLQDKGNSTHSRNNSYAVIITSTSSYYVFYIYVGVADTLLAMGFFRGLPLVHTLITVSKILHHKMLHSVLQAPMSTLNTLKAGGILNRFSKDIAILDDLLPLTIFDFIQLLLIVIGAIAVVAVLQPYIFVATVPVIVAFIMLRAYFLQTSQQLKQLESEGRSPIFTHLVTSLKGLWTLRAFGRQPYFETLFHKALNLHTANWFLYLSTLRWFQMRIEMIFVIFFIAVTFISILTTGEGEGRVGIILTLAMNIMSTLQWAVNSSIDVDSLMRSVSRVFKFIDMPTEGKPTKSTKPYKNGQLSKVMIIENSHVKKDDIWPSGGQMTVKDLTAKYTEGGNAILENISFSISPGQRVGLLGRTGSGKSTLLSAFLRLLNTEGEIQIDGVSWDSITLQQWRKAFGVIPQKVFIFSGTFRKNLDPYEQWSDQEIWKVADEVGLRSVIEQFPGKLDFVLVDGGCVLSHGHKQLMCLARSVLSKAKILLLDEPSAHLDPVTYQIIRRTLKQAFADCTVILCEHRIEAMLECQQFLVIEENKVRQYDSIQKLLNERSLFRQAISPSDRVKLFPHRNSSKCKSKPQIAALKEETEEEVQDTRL

CCN(C(=O)c1nn(-c2ccc(C)cc2)c(=O)c2c1c1cc(Cl)ccc1n2C)c1ccccc1 [Example 165, 8-chloro-N-ethyl-5-methyl-4-oxo-N-phenyl-3-(p-tolyl)-4,5-dihydro-3H-pyridazino[4,5-b]indole-1-carboxamide]
Emax: 30 to 80%
EC50: < 10 µM

CC(C)n1nc(-c2cccc(C#N)c2)c2c3ccccc3n(C)c2c1=O [Example 240, 3-(3-isopropyl-5-methyl-4-oxo-4,5-dihydro-3H-pyridazino[4,5-b]indol-1-yl)benzonitrile]
Emax: 30 to 80%
EC50: > 20 µM

CCN(CC)C(=O)c1nn(CC(=O)N(CC)c2cccc(Cl)c2)c(=O)c2c1c1ccccc1n2C [Example 213, 3-(2-((3-chlorophenyl)(ethyl)amino)-2-oxoethyl)-N,N-diethyl-5-methyl-4-oxo-4,5-dihydro-3H-pyridazino[4,5-b]indole-1-carboxamide]
Emax: 30 to 80%
EC50: < 10 µM

Cc1ccc(-n2nc(C(=O)N(CC#N)c3ccccc3)c3c4ccccc4n(C)c3c2=O)cc1 [Example 154, N-(cyanomethyl)-5-methyl-4-oxo-N-phenyl-3-(p-tolyl)-4,5-dihydro-3H-pyridazino[4,5-b]indole-1-carboxamide]
Emax: 30 to 80%

CCN(C(=O)c1nn(-c2ccc(C)cc2)c(=O)c2c1c1ccc(OC)cc1n2C)c1ccccc1 [Example 188, N-ethyl-7-methoxy-5-methyl-4-oxo-N-phenyl-3-(p-tolyl)-4,5-dihydro-3H-pyridazino[4,5-b]indole-1-carboxamide]
Emax: 30 to 80%
EC50: > 20 µM

CCc1ccc(N(CC)C(=O)Cn2nc(-c3cccc4c3OCO4)c3ccccc3c2=O)cc1 [Example 10, 2-(4-(benzo[d][1,3]dioxol-4-yl)-1-oxophthalazin-2(1H)-yl)-N-ethyl-N-(4-ethylphenyl)acetamide]
Emax: 10 to 30%
EC50: > 20 µM

CCN(C(=O)c1nn(-c2ccc(C)cc2)c(=O)c2c1c1ccccc1n2CC#N)c1ccccc1 [Example 223, 5-(cyanomethyl)-N-ethyl-4-oxo-N-phenyl-3-(p-tolyl)-4,5-dihydro-3H-pyridazino[4,5-b]indole-1-carboxamide]
Emax: 30 to 80%

CCN(C(=O)c1nn(C)c(=O)c2c1c1ccccc1n2C)c1ccccc1 [Example 207, N-ethyl-3,5-dimethyl-4-oxo-N-phenyl-4,5-dihydro-3H-pyridazino[4,5-b]indole-1-carboxamide]
Emax: 30 to 80%
EC50: < 10 µM

COc1ccc2c(-c3cccc(C#N)c3)nn(CC(=O)N(C)c3ccc4c(c3)OC(F)(F)O4)c(=O)c2c1 [Example 69, 2-(4-(3-cyanophenyl)-7-methoxy-1-oxophthalazin-2(1H)-yl)-N-(2,2-difluorobenzo[d][1, 3]dioxol-5-yl)-N-methylacetamide]
Emax: > 80%

CCN(C(=O)Cn1nc(Cc2cccnc2)c2cccc(OCCOC)c2c1=O)c1ccc2c(c1)OC(F)(F)O2 [Example 61, N-(2,2-difluorobenzo[d][1,3]dioxol-5-yl)-N-ethyl-2-(8-(2-methoxyethoxy)-1-oxo-4-(pyridin-3-ylmethyl)phthalazin-2(1H)-yl)acetamide]
Emax: 30 to 80%

CCN(C(=O)Cn1nc(Cc2cccnc2)c2ccc(C)cc2c1=O)c1ccc2c(c1)OC(F)(F)O2 [Example 45, N-(2,2-difluorobenzo[d][1,3]dioxol-5-yl)-N-ethyl-2-(7-methyl-1-oxo-4-(pyridin-3-ylmethyl)phthalazin-2(1H)-yl)acetamide]
Emax: > 80%

CCN(C(=O)c1nn(C[C@@H](O)CO)c(=O)c2c1c1ccccc1n2C)c1ccccc1 [Example 229, (R)-3-(2,3-dihydroxypropyl)-N-ethyl-5-methyl-4-oxo-N-phenyl-4,5-dihydro-3H-pyridazino[4,5-b]indole-1-carboxamide]
Emax: 30 to 80%
EC50: < 10 µM

CCc1ccc(N(CC)C(=O)Cn2nc(Cc3cccnc3)c3ncccc3c2=O)cc1 [Example 43, N-ethyl-N-(4-ethylphenyl)-2-(5-oxo-8-(pyridin-3-ylmethyl)pyrido[2,3-d]pyridazin-6(5H)-yl)acetamide]
Emax: 10 to 30%
EC50: > 20 µM

CCN(C(=O)c1nn(-c2ccc(C)cc2)c(=O)c2c1c1ccccc1n2C)c1ccc2c(c1)OC(F)(F)O2 [Example 182, N-(2,2-difluorobenzo[d][1, 3]dioxol-5-yl)-N-ethyl-5-methyl-4-oxo-3-(p-tolyl)-4,5-dihydro-3H-pyridazino[4,5-b]indole-1-carboxamide]
Emax: 30 to 80%

CN(C(=O)Cn1nc(-c2cccc(C#N)c2)c2ccc(O)cc2c1=O)c1ccc2c(c1)OC(F)(F)O2 [Example 102, 2-(4-(3-cyanophenyl)-7-hydroxy-1-oxophthalazin-2(1H)-yl)-N-(2,2-difluorobenzo[d][1,3]dioxol-5-yl)-N-methylacetamide]
Emax: > 80%
EC50: < 10 µM

CCc1ccc(N(CC)C(=O)Cn2nc(Cc3cccnc3)c3ccc(Cl)cc3c2=O)cc1 [Example 39, 2-(7-chloro-1-oxo-4-(pyridin-3-ylmethyl)phthalazin-2(1H)-yl)-N-ethyl-N-(4-ethylphenyl)acetamide]
Emax: 30 to 80%
EC50: > 20 µM

CCN(C(=O)c1nn(-c2ccc(C)cc2)c(=O)c2[nH]c3ccccc3c12)c1ccccc1 [Example 220, N-Ethyl-4-oxo-N-phenyl-3-p-tolyl-4,5-dihydro-3H-pyridazino[4,5-b]indole-1-carboxamide]
Emax: 30 to 80%

CCN(C(=O)c1nn(-c2ccc(C(F)(F)F)cc2)c(=O)c2c1c1ccccc1n2C)c1ccccc1 [Example 194, N-ethyl-5-methyl-4-oxo-N-phenyl-3-(4-(trifluoromethyl)phenyl)-4,5-dihydro-3H-pyridazino[4,5-b]indole-1-carboxamide]
Emax: 30 to 80%
EC50: > 20 µM

Cc1nc2ccc(N(C)C(=O)Cn3nc(-c4cccc(C#N)c4)c4ccc(OC5CCCCC5)cc4c3=O)cc2o1 [Example 115, 2-(4-(3-cyanophenyl)-7-(cyclohexyloxy)-1-oxophthalazin-2(1H)-yl)-N-methyl-N-(2-methylbenzo[d]oxazol-6-yl)acetamide]
Emax: > 80%
EC50: < 10 µM

COc1ccc2c(-c3ccc(S(N)(=O)=O)cc3)nn(CC(=O)N(c3ccc4c(c3)OC(F)(F)O4)C(C)C)c(=O)c2c1 [Example 76, N-(2,2-difluorobenzo[d][1,3]dioxol-5-yl)-N-isopropyl-2-(7-methoxy-1-oxo-4-(4-sulfamoylphenyl)phthalazin-2(1H)-yl)acetamide]
Emax: > 80%

COc1ccc2c(-c3cccc(C#N)c3)nn(CC(=O)N(c3ccc4c(c3)OC(F)(F)O4)C(C)C)c(=O)c2c1 [Example 77, 2-(4-(3-cyanophenyl)-7-methoxy-1-oxophthalazin-2(1H)-yl)-N-(2,2-difluorobenzo[d][1,3]dioxol-5-yl)-N-isopropylacetamide]
Emax: > 80%
EC50: 10 to 20 µM

CCN(C(=O)c1nn(-c2ncccn2)c(=O)c2c1c1ccccc1n2C)c1ccccc1 [Example 171, N-ethyl-5-methyl-4-oxo-N-phenyl-3-(pyrimidin-2-yl)-4,5-dihydro-3H-pyridazino[4,5-b]indole-1-carboxamide]
Emax: 10 to 30%
EC50: > 20 µM

CCN(C(=O)c1nn(C(C)C)c(=O)c2c1c1ccccc1n2C)c1cc(Cl)ccc1C#N [Example 205, N-(5-chloro-2-cyanophenyl)-N-ethyl-3-isopropyl-5-methyl-4-oxo-4,5-dihydro-3H-pyridazino[4,5-b]indole-1-carboxamide]
Emax: 30 to 80%

CCN(C(=O)Cn1nc(-c2cccc(C#N)c2)c2ccc(OC)cc2c1=O)c1ccc(OC(F)F)cc1 [Example 74, 2-(4-(3-cyanophenyl)-7-methoxy-1-oxophthalazin-2(1H)-yl)-N-(4-(difluoromethoxy)phenyl)-N-ethylacetamide]
Emax: 30 to 80%

Cc1nc2ccc(N(C(=O)Cn3nc(-c4cccc(F)c4)c4ccc(O)cc4c3=O)C3CC3)cc2o1 [Example 99, N-cyclopropyl-2-(4-(3-fluorophenyl)-7-hydroxy-1-oxophthalazin-2(1H)-yl)-N-(2-methylbenzo[d]oxazol-6-yl)acetamide]
Emax: > 80%

COc1ccc2c(c1)c1c(=O)n(CC(=O)N(C)c3ccc4nc(C)oc4c3)ncc1n2Cc1ccc(C#N)cc1 [Example 259, 2-(5-(4-cyanobenzyl)-8-methoxy-1-oxo-1,5-dihydro-2H-pyridazino[4,5-b]indol-2-yl)-N-methyl-N-(2-methylbenzo[d]oxazol-6-yl)acetamide]
Emax: > 80%
EC50: < 10 µM

COc1ccc2c(-c3ccc(C(N)=O)cc3)nn(CC(=O)N(C)c3ccc4c(c3)OC(F)(F)O4)c(=O)c2c1 [Example 83, 4-(3-(2-((2,2-difluorobenzo[d][1, 3]dioxol-5-yl)(methyl)amino)-2-oxoethyl)-6-methoxy-4-oxo-3,4-dihydrophthalazin-1-yl)benzamide]
Emax: 30 to 80%

CCN(C(=O)c1nn(-c2ccc(OC)cc2)c(=O)c2c1c1ccccc1n2C)c1ccccc1 [Example 179, N-ethyl-3-(4-methoxyphenyl)-5-methyl-4-oxo-N-phenyl-4,5-dihydro-3H-pyridazino[4,5-b]indole-1-carboxamide]
Emax: 30 to 80%
EC50: > 20 µM

CCN(C(=O)Cn1nc(Cc2cccnc2)c2c(OC3CCCCC3)cccc2c1=O)c1ccc2c(c1)OC(F)(F)O2 [Example 60, 2-(5-(cyclohexyloxy)-1-oxo-4-(pyridin-3-ylmethyl)phthalazin-2(1H)-yl)-N-(2,2-difluorobenzo[d][1,3]dioxol-5-yl)-N-ethylacetamide]
Emax: 30 to 80%

CCN(C(=O)c1nn(-c2ccc(OC)c(Cl)c2)c(=O)c2c1c1ccccc1n2C)c1ccccn1 [Example 192, 3-(3-chloro-4-methoxyphenyl)-N-ethyl-5-methyl-4-oxo-N-(pyridin-2-yl)-4,5-dihydro-3H-pyridazino[4,5-b]indole-1-carboxamide]
Emax: 30 to 80%
EC50: < 10 µM
